This assay deals with T1, ΔF508-CFTR (Homo sapiens, UniProt P13569, DEL508-508).
T1 construct: expressed in transfected cells
The assay is described as follows: Membrane potential optical (FRET/VIPR) assay, identification of potentiator compounds. The assay is classed as cell-based. The following applies: Table 3, assay not given; for % Activity: relative efficacy. An outline of the steps: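 NIH3T3 mouse fibroblasts stably expressing ΔF508-CFTR, temperature-corrected 24 h at 27° C., read on VIPR by FRET between CC2-DMPE and DiSBAC2(3). Potentiators identified in a double-addition format, first adding chloride-free (gluconate) medium with or without compound.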

The record followed here is patent US8614327B2 (Vertex Pharmaceuticals Incorporated, priority 2004, dated 2013).

What is called EC50 is the midpoint of the concentration-response curve.

T1 sequence (P13569 with tags, fused parts or gaps DEL508-508): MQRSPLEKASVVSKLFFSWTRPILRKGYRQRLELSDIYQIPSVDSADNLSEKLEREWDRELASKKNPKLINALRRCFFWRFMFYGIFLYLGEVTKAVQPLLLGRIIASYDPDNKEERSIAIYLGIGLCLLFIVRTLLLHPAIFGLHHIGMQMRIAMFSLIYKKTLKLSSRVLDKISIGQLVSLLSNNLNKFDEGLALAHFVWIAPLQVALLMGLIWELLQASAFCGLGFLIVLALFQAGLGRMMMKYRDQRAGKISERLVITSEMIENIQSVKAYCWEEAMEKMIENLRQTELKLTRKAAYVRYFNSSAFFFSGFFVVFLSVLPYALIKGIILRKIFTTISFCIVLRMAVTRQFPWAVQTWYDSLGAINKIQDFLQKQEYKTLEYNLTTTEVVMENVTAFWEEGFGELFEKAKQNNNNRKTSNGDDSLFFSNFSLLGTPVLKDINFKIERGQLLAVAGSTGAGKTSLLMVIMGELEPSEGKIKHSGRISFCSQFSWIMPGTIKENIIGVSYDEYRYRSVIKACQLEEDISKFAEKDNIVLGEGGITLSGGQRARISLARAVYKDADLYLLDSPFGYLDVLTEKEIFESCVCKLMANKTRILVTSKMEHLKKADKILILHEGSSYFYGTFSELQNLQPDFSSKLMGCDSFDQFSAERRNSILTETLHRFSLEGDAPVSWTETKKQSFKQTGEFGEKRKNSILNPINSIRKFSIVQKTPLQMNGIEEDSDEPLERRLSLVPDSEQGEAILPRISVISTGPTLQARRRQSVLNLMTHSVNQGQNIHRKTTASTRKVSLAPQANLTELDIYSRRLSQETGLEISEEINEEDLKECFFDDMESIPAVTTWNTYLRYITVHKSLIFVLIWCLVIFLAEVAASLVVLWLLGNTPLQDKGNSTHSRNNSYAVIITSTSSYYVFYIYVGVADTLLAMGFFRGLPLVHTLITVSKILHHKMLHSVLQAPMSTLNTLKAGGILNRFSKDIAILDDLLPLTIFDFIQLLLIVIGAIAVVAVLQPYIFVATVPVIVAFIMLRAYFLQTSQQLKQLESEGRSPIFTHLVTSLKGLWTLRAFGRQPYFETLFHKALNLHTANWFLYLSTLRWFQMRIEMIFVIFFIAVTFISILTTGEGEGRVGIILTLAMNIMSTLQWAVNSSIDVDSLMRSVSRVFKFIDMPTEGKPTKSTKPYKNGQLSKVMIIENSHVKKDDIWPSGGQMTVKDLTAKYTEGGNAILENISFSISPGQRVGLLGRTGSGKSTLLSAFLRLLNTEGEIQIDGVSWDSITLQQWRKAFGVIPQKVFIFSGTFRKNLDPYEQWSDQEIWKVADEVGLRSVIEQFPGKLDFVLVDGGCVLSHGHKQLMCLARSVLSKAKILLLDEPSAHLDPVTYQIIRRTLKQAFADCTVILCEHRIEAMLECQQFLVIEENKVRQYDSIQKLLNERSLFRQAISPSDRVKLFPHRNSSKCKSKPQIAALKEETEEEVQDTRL

Turning to `CCC(CC)(c1cc(F)c(NC(=O)c2cnc3ccccc3c2O)cc1O)C(C)(C)C` [Compound 153, N-[4-(1,1-diethyl-2,2-dimethyl-propyl)-2-fluoro-5-hydroxy-phenyl]-4-hydroxy-quinoline-3-carboxamide], the half-maximal effective concentration (EC50) is under 10 µM and the “% Activity” value is on record as “++ (between 25% to 100%)”.
The like results for `O=C(Nc1cc(C(F)(F)F)cc(C(F)(F)F)c1)c1c[nH]c2ccccc2c1=O` [Compound 154, N-[3,5-bis(trifluoromethyl)phenyl]-4-oxo-1H-quinoline-3-carboxamide] were, in that order, 25 to 60 µM and “+ (<25%)”.
In the case of `O=C(Nc1ccccn1)c1c[nH]c2ccccc2c1=O` [Compound 155, 4-oxo-N-(2-pyridyl)-1H-quinoline-3-carboxamide], the concentration for a half-maximal effect (EC50) lay within 25 to 60 µM and the “% Activity” value was “+ (<25%)”.
On to `O=C(Nc1ccccc1-c1ccccc1OC(F)(F)F)c1c[nH]c2ccccc2c1=O` [Compound 156, 4-oxo-N-[2-[2-(trifluoromethoxy)phenyl]phenyl]-1H-quinoline-3-carboxamide], for which the 50% effective concentration (EC50) was under 10 µM and the “% Activity” value is on record as “++ (between 25% to 100%)”.
The corresponding values for `CCc1ccc(NC)cc1NC(=O)c1c[nH]c2ccccc2c1=O` [Compound 157, N-(2-ethyl-5-methylamino-phenyl)-4-oxo-1H-quinoline-3-carboxamide] are under 10 µM and “++ (between 25% to 100%)”.
As to `O=C(Nc1cc2[nH]ccc2cc1-c1ccccc1)c1c[nH]c2ccccc2c1=O` [Compound 158, 4-Oxo-N-(5-phenyl-1H-indol-6-yl)-1H-quinoline-3-carboxamide], the EC50 is under 10 µM and the “% Activity” value is given as “++ (between 25% to 100%)”.
On to `COC(=O)NC1CCCc2ccc(NC(=O)c3c[nH]c4ccccc4c3=O)cc21` (centres unmarked) [Compound 159, [7-[(4-Oxo-1H-quinolin-3-yl)carbonylamino]tetralin-1-yl]aminoformic acid methyl ester], for which the EC50 lay in the range of 10 to 25 µM and the “% Activity” value is “++ (between 25% to 100%)”.
The corresponding values for `CCCc1ccc(NC(=O)c2c[nH]c3ccccc3c2=O)cc1N` [Compound 160, N-(3-amino-4-propyl-phenyl)-4-oxo-1H-quinoline-3-carboxamide] are under 10 µM and “++ (between 25% to 100%)”.
As to `CCOCCOc1cc(NC(=O)c2c[nH]c3ccccc3c2=O)ccc1C(C)(C)C` [Compound 161, N-[3-(2-ethoxyethoxy)-4-tert-butyl-phenyl]-4-oxo-1H-quinoline-3-carboxamide], the EC50 was under 10 µM and the “% Activity” value is “++ (between 25% to 100%)”.
The corresponding values for `COc1ccc(NC(=O)c2c[nH]c3ccccc3c2=O)cn1` [Compound 162, N-(6-methoxy-3-pyridyl)-4-oxo-1H-quinoline-3-carboxamide] are 25 to 60 µM and “+ (<25%)”.
The like results for `CCOc1ccccc1-c1ccc(CN)cc1NC(=O)c1c[nH]c2ccccc2c1=O` [Compound 163, 4-Oxo-1,4-dihydro-quinoline-3-carboxylic acid (4-aminomethyl-2′-ethoxy-biphenyl-2-yl)-amide] were, in that order, 10 to 25 µM and “++ (between 25% to 100%)”.
The like results for `O=C(Nc1cccc(C(F)(F)F)c1)c1c[nH]c2ccccc2c1=O` [Compound 164, 4-oxo-N-[3-(trifluoromethyl)phenyl]-1H-quinoline-3-carboxamide] were, in that order, under 10 µM and “++ (between 25% to 100%)”.
Take `NS(=O)(=O)c1ccc(NC(=O)c2c[nH]c3ccccc3c2=O)cc1` [Compound 165, 4-oxo-N-(4-sulfamoylphenyl)-1H-quinoline-3-carboxamide]: the EC50 was in the range of 25 to 60 µM and the “% Activity” value is listed as “+ (<25%)”.
The corresponding values for `COC(=O)c1ccc(-c2ccccc2NC(=O)c2c[nH]c3ccccc3c2=O)cc1` [Compound 166, 4-[2-[(4-oxo-1H-quinolin-3-yl)carbonylamino]phenyl]benzoic acid methyl ester] are under 10 µM and “++ (between 25% to 100%)”.
The like results for `Cc1ccc(NC(=O)c2c[nH]c3ccccc3c2=O)cc1N` [Compound 167, N-(3-amino-4-methyl-phenyl)-4-oxo-1H-quinoline-3-carboxamide] were, in that order, 10 to 25 µM and “++ (between 25% to 100%)”.
Regarding `O=C(Nc1cccnc1)c1c[nH]c2ccccc2c1=O` [Compound 168, 4-oxo-N-(3-pyridyl)-1H-quinoline-3-carboxamide], the EC50 fell in the range of 25 to 60 µM and the “% Activity” value is reported as “+ (<25%)”.
The corresponding values for `Cn1ccc2ccc(NC(=O)c3c[nH]c4ccccc4c3=O)cc21` [Compound 169, N-(1-methyl-1H-indol-6-yl)-4-oxo-1H-quinoline-3-carboxamide] are 10 to 25 µM and “++ (between 25% to 100%)”.
The corresponding values for `O=C(Nc1ccc(Cl)cn1)c1c[nH]c2ccccc2c1=O` [Compound 170, N-(5-chloro-2-pyridyl)-4-oxo-1H-quinoline-3-carboxamide] are 25 to 60 µM and “+ (<25%)”.
The corresponding values for `O=C(Nc1ccccc1-c1cccc(Cl)c1Cl)c1c[nH]c2ccccc2c1=O` [Compound 171, N-[2-(2,3-dichlorophenyl)phenyl]-4-oxo-1H-quinoline-3-carboxamide] are under 10 µM and “++ (between 25% to 100%)”.
For `O=C(Nc1ccccc1-c1cc2ccccc2s1)c1c[nH]c2ccccc2c1=O` [Compound 172, N-(2-(benzo[b]thiophen-2-yl)phenyl)-1,4-dihydro-4-oxoquinoline-3-carboxamide], the EC50 is under 10 µM and the “% Activity” value is listed as “++ (between 25% to 100%)”.
With `Cc1cccc(NC(=O)c2c[nH]c3ccccc3c2=O)n1` [Compound 173, N-(6-methyl-2-pyridyl)-4-oxo-1H-quinoline-3-carboxamide], the EC50 fell in the range of 25 to 60 µM and the “% Activity” value is reported as “+ (<25%)”.
On to `CC(=O)c1ccc(-c2ccccc2NC(=O)c2c[nH]c3ccccc3c2=O)s1` [Compound 174, N-[2-(5-acetyl-2-thienyl)phenyl]-4-oxo-1H-quinoline-3-carboxamide], for which the half-maximal effective concentration (EC50) is under 10 µM and the “% Activity” value is “++ (between 25% to 100%)”.
The like results for `CC(=O)N1CC2(CC2)c2ccc(NC(=O)c3c[nH]c4ccccc4c3=O)cc21` [Compound 175, 4-Oxo-1,4-dihydro-quinoline-3-carboxylic acid N-(1′-Acetyl-1′,2′-dihydrospiro[cyclopropane-1,3′-3H-indol]-6′-yl)-amide] were, in that order, 10 to 25 µM and “++ (between 25% to 100%)”.
The like results for `O=C(Nc1ccc(OC(F)(F)F)cc1)c1c[nH]c2ccccc2c1=O` [Compound 176, 4-oxo-N-[4-(trifluoromethoxy)phenyl]-1H-quinoline-3-carboxamide] were, in that order, under 10 µM and “++ (between 25% to 100%)”.
The like results for `CCCCOc1ccccc1NC(=O)c1c[nH]c2ccccc2c1=O` [Compound 177, N-(2-butoxyphenyl)-4-oxo-1H-quinoline-3-carboxamide] were, in that order, under 10 µM and “+++ (>100%)”.
Regarding `CC(C)(C)c1ccccc1Oc1ccccc1NC(=O)c1c[nH]c2ccccc2c1=O` [Compound 178, 4-oxo-N-[2-(2-tert-butylphenoxy)phenyl]-1H-quinoline-3-carboxamide], the EC50 was under 10 µM and the “% Activity” value is “++ (between 25% to 100%)”.
As to `NC(=O)c1cccc(NC(=O)c2c[nH]c3ccccc3c2=O)c1` [Compound 179, N-(3-carbamoylphenyl)-4-oxo-1H-quinoline-3-carboxamide], the EC50 lay within 25 to 60 µM and the “% Activity” value is reported as “+ (<25%)”.
The like results for `CCc1cccc(C)c1NC(=O)c1c[nH]c2ccccc2c1=O` [Compound 180, N-(2-ethyl-6-methyl-phenyl)-4-oxo-1H-quinoline-3-carboxamide] were, in that order, under 10 µM and “++ (between 25% to 100%)”.
The like results for `Cc1ccc(-c2ccccc2NC(=O)c2c[nH]c3ccccc3c2=O)cc1` [Compound 181, 4-oxo-N-[2-(p-tolyl)phenyl]-1H-quinoline-3-carboxamide] were, in that order, under 10 µM and “++ (between 25% to 100%)”.
As to `O=C(Nc1ccccc1-c1ccc(F)cc1)c1c[nH]c2ccccc2c1=O` [Compound 182, N-[2-(4-fluorophenyl)phenyl]-4-oxo-1H-quinoline-3-carboxamide], the EC50 was under 10 µM and the “% Activity” value was “++ (between 25% to 100%)”.
The corresponding values for `CC(C)(C)OC(=O)N1CCCc2ccc(NC(=O)c3c[nH]c4ccccc4c3=O)cc21` [Compound 183, 7-[(4-oxo-1H-quinolin-3-yl)carbonylamino]-1,2,3,4-tetrahydroquinoline-1-carboxylic acid tert-butyl ester] are under 10 µM and “++ (between 25% to 100%)”.
Consider `O=C(Nc1ccc2cc[nH]c2c1)c1c(C(F)(F)F)[nH]c2ccccc2c1=O` [Compound 184, N-(1H-indol-6-yl)-4-oxo-2-(trifluoromethyl)-1H-quinoline-3-carboxamide], for which the EC50 lay in the range of 25 to 60 µM and the “% Activity” value is recorded as “+ (<25%)”.
The like results for `O=C(Nc1cccc(S(=O)(=O)N2CCOCC2)c1)c1c[nH]c2ccccc2c1=O` [Compound 185, N-(3-morpholinosulfonylphenyl)-4-oxo-1H-quinoline-3-carboxamide] were, in that order, 25 to 60 µM and “+ (<25%)”.
For `O=C(Nc1ccc2c(C3CCCC3)c[nH]c2c1)c1c[nH]c2ccccc2c1=O` [Compound 186, N-(3-cyclopentyl-1H-indol-6-yl)-4-oxo-1H-quinoline-3-carboxamide], the 50% effective concentration (EC50) was under 10 µM and the “% Activity” value was “++ (between 25% to 100%)”.
